What all share (assay type): cell-based
Test [1] concerns HTT mRNA. Put plainly: Splicing assay (RT-qPCR) monitoring HTT splice variants, canonical (CJ) and alternative (AJ) junction. To be noted: 50% response, A673 or K562 cell line, 24 hours; for IC50: decrease in CJ mRNA; for AC50: increase in AJ mRNA. The method, boiled down:
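A673 or K562 cells were treated 24 h with an 11-point 3-fold dilution series (top 10 uM, ≤0.25% DMSO) at 37 °C. HTT canonical- and alternative-junction mRNAs were quantified in lysates by one-step RT-qPCR. Values were normalized to PPIA (A673) or GAPDH/GUSB (K562).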
On the technique in general: Real-time PCR tracks product formation cycle by cycle.

For test [2], the system named is Target C CJ mRNA. Nature of the test: Gene panel canonical junction qPCR assay, Target C. The conditions noted are these: Table 6, decrease in CJ mRNA, read-out: Target C IC50 (decrease in CJ mRNA levels). An outline of the steps:
(§1)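 A673 or K562 cells treated 24 h at 37° C with 11-point 3-fold dilutions, top 10 uM, DMSO ≤0.25%. CJ mRNA quantified by RT-qPCR with exon-junction-spanning probeset, ΔΔCt vs housekeeping gene (GAPDH, GUSB or PPIA) and DMSO control. IC50 from 4-parameter fit of percentage CJ decrease.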

The subject of test [3] is SMN2 CJ mRNA. Put plainly: Gene panel canonical junction qPCR assay, SMN2. The conditions noted are these: Table 6, decrease in CJ mRNA, read-out: SMN2 IC50 (decrease in CJ mRNA levels). An outline of the steps: as §1
For test [4], the system named is HTT CJ mRNA. Nature of the test: Gene panel canonical junction qPCR assay, HTT. To be noted: Table 6, decrease in CJ mRNA, read-out: HTT IC50 (decrease in CJ mRNA levels). An outline of the steps: as §1

Each structure is given as a SMILES string. Structures can show the parent of a compound that is named as a salt.

Regarding `Cn1cc2cc(-c3cc4cn(C5CCNCC5)nc4s3)c(F)cc2n1` [Compound 210], the IC50 is less than 0.1 µM in test [1], 0.1 to 1 µM in test [2], less than 0.1 µM in test [3] and less than 0.1 µM in test [4]. Moreover, the AC50 in test [1] was less than 0.1 µM.

`Cn1cc2cc(-c3nc4sc(C5CCNCC5)cc4s3)cc(F)c2n1` [Compound 106, 7-fluoro-2-methyl-5-[5-(piperidin-4-yl)thieno[2,3-d][1,3]thiazol-2-yl]indazole]: the IC50 in test [1], in test [2], in test [3] and in test [4] was less than 0.1 µM throughout. This compound also displayed an AC50 in test [1] of less than 0.1 µM.

Take `Cc1nc2c(F)cc(-c3nc4sc(C5CCNCC5)cc4s3)cc2s1` [Compound 126, 4-fluoro-2-methyl-6-[5-(piperidin-4-yl)thieno[2,3-d][1,3]thiazol-2-yl]-1,3-benzothiazole hydrochloride]: the IC50 in test [1] is 0.1 to 1 µM; in test [2], 1 to 10 µM; in test [3], 0.1 to 1 µM; in test [4], 0.1 to 1 µM. For the same compound, the AC50 in test [1] was 0.1 to 1 µM.

On to `Cc1cn2nc(-c3cc4cn(C5CCNCC5)nc4s3)c(O)c2c(C)n1` [Compound 213, 4,6-dimethyl-2-[2-(piperidin-4-yl)thieno[2,3-c]pyrazol-5-yl]pyrazolo[1,5-a]pyrazin-3-ol hydrochloride], for which the IC50 in test [1] is 1 to 10 µM; in test [2] it was greater than 10 µM; in test [3] it was 1 to 10 µM; in test [4] it was 1 to 10 µM. The compound further had an AC50 in test [1] of 1 to 10 µM.

As for `Cc1c(O)c(-c2cc3cn(C4CCNCC4)nc3s2)cc2cn(C)nc12` [Compound 221], the IC50 in test [1], in test [2], in test [3] and in test [4] was greater than 10 µM throughout. Also, the AC50 in test [1] is greater than 10 µM.

Turning to `Cc1cn2nc(-n3cc4cc(C5CCNCC5)sc4n3)cc2c(C)n1` [Compound 164], the IC50 in test [1], in test [2], in test [3] and in test [4] was 1 to 10 µM in each case. The AC50 in test [1] lay in the range of 1 to 10 µM.

Regarding `CC1CN(c2cc3sc(-c4cc(F)c5nn(C)cc5c4)nc3s2)CCN1C` (centres unmarked) [Compound 128, 5-[5-(3,4-dimethylpiperazin-1-yl)thieno[2,3-d][1,3]thiazol-2-yl]-7-fluoro-2-methylindazole], the IC50 lay within 1 to 10 µM in test [1], 1 to 10 µM in test [2], 0.1 to 1 µM in test [3] and 1 to 10 µM in test [4]. In test [1], this compound gave a concentration at half-maximal activity (AC50) of 1 to 10 µM.

For `Cc1cn2cc(-n3cc4sc(C5CCNCC5)cc4n3)cc(Cl)c2n1` [Compound 172], the IC50 in test [1] is 0.1 to 1 µM; in test [2], 1 to 10 µM; in test [3], 0.1 to 1 µM; in test [4], 0.1 to 1 µM. For the same compound, the AC50 in test [1] was in the range of 0.1 to 1 µM.

For `Cc1cn2nc(-c3cc4cn(C5CCNCC5)nc4s3)cc2c(C)n1` [Compound 222], the IC50 in test [1] is 1 to 10 µM; in test [2] it was 1 to 10 µM; in test [3], less than 0.1 µM; in test [4], 1 to 10 µM. The same compound yielded an AC50 in test [1] of 1 to 10 µM.

For `Cn1cc2ccc(-c3nc4sc(C5CCNCC5)cc4s3)cc2n1` [Compound 127, 2-methyl-6-[5-(piperidin-4-yl)thieno [2,3-d][1,3]thiazol-2-yl]indazole hydrochloride], the IC50 in test [1], in test [2], in test [3] and in test [4] was 1 to 10 µM throughout. In test [1], this compound yielded an AC50 of 1 to 10 µM.

For the compound `Cc1cn2nc(-n3cc4sc(N5CC6(CN(C)C6)C5)cc4n3)cc(C)c2n1` [Compound 188, 2-(2-{2,8-dimethylimidazo[1,2-b]pyridazin-6-yl}thieno [3,2-c]pyrazol-5-yl)-6-methyl-2,6-diazaspiro [3.3] heptane], the IC50 lay in the range of 0.1 to 1 µM in test [1], 1 to 10 µM in test [2], 0.1 to 1 µM in test [3] and 0.1 to 1 µM in test [4]. In test [1], this compound gave an AC50 of 1 to 10 µM.

With `Cn1cc2cc(-c3nc4sc(C5(O)CCNCC5)cc4s3)cc(F)c2n1` [Compound 236, 4-[2-(7-fluoro-2-methylindazol-5-yl)thieno[2,3-d] [1,3]thiazol-5-yl] piperidin-4-ol], the IC50 in test [1] lay within 0.1 to 1 µM; in test [2] it was 1 to 10 µM; in test [3], 0.1 to 1 µM; in test [4] it was 0.1 to 1 µM. The AC50 in test [1] is 1 to 10 µM.

For `Cn1cc2cc(-c3cc4cn(C5CNC5)nc4s3)cc(F)c2n1` [Compound 184], the IC50 in test [1] is 1 to 10 µM; in test [2] it was greater than 10 µM; in test [3] it was 0.1 to 1 µM; in test [4] it was 1 to 10 µM. This compound displayed an AC50 in test [1] of 1 to 10 µM.

As usually defined, the IC50 is the concentration needed to halve the response being measured. For orientation: AC50 means the midpoint of the concentration-response curve, whichever way the signal moves. Lower therefore signals activity at low concentration.

These data come from US20240239811A1, “5-(5-(PIPERIDIN-4-YL)THIENO[3,2-C]PYRAZOL-2-YL]INDAZOLE DERIVATIVES AND RELATED COMPOUNDS AS MODULATORS FOR SPLICING NUCLEIC ACIDS AND FOR THE T” (REMIX THERAPEUTICS INC., priority 2020, published 2024).
